Results reported in publication PMC4344499 (2015).

Test system: Z33 G4 (radiolabeled) (DNA, G4) AAAGTGATGGTGGTGGGGGAAGGATTTTCGAAC
Assay: EMSA, displacement of bound DHX36 protein
Details: 100 mM KCl, 10 mM NaCl, 3.3 mM MgCl2, 10 mM EDTA; K-Res buffer pH 7.8, 37 °C, no ATP; DHX36 (4 nM) displaced from 4 nM G4; poly(dI:dC) present

IC50: 0.033 µM
Structure (SMILES): NCCOc1cc(C(=O)Nc2cc(OCCN)c3ccccc3n2)nc(C(=O)Nc2cc(OCCN)c3ccccc3n2)c1
